Assay [1] addresses T1, NLRP3 (Homo sapiens, UniProt Q96P20). The assay is described as follows: THP-1 cells pyroptosis assay. The assay is classed as cell-based. Also noted: Seed THP-1 cells (25,000 cells/well) containing 1.0 μg/ml LPS; host or cells: THP-1 cells. As to conditions: LPS 1 μg/ml, nigericin 5 μM, resazurin readout. As to the method:
The cells were routinely passaged and grown to confluency (˜10^6 cells/ml). On the day of the experiment, THP-1 cells were harvested and resuspended into RPMI medium (without FBS). The cells were then counted and viability (>90%) checked by Trypan blue (Sigma #T8154). […] To this diluted cell solution was added LPS (Sigma #L4524) to give a 1 μg/ml Final Assay Concentration (FAC). 40 μl of the final preparation was aliquoted into each well of a 96-well plate. The plate thus prepared was used for compound screening.
The following method step-by-step assay was followed for compound screening. • 1. […] Incubate for 3 hrs at 37° C., 5% CO2 • 4. Add 5 μl nigericin (Sigma #N7143) (FAC 5 μM) to all wells • 5. Incubate for 1 hr at 37° C., 5% CO2 • 6. At the end of the incubation period, spin plates at 300×g for 3 mins and remove supernatant • 7. Then add 50 μl of resazurin (Sigma #R7017) (FAC 100 μM resazurin in RPMI medium without FBS) and incubate plates for a further 1-2 hrs at 37° C. and 5% CO2 • 8. […] IC50 data is fitted to a non-linear regression equation (log inhibitor vs response-variable slope 4-parameters)

Assay [2] concerns the target T1, NLRP3. The assay is described as follows: Human whole blood IL-1β release assay. The assay is classed as cell-based. Also noted: Human whole blood in Li-heparin tubes was obtained from healthy donors; from tissue; host or cells: human whole blood from healthy donors. As to conditions: LPS 1 μg/ml, nigericin, IL-1β in supernatant (AlphaLisa), read-out: HWB IC50. As to the method:
For systemic delivery, the ability to inhibit NLRP3 when the compounds are present within the bloodstream is of great importance. For this reason, the NLRP3 inhibitory activity of a number of compounds in human whole blood was investigated in accordance with the following protocol.
Human whole blood in Li-heparin tubes was obtained from healthy donors from a volunteer donor panel. • 1. […] Incubate for 3 hrs at 37° C., 5% CO2 • 4. Add 1 μl nigericin (Sigma #N7143) ([…]) to all wells • 5. Incubate for 1 hr at 37° C., 5% CO2 • 6. At the end of the incubation period, spin plates at 300×g for 5 mins to pellet cells and remove 20 μl of supernatant and add to 96-well v-bottom plates for IL-1β analysis (note: these plates containing the supernatants can be stored at −80° C. to be analysed at a later date) • 7. IL-1β was measured according to the manufacturer protocol (Perkin Elmer-AlphaLisa IL-1 Kit AL220F-5000) • 8. IC50 data is fitted to a non-linear regression equation (log inhibitor vs response-variable slope 4-parameters)

Structures are written as SMILES.

T1 sequence (Q96P20 whole entry): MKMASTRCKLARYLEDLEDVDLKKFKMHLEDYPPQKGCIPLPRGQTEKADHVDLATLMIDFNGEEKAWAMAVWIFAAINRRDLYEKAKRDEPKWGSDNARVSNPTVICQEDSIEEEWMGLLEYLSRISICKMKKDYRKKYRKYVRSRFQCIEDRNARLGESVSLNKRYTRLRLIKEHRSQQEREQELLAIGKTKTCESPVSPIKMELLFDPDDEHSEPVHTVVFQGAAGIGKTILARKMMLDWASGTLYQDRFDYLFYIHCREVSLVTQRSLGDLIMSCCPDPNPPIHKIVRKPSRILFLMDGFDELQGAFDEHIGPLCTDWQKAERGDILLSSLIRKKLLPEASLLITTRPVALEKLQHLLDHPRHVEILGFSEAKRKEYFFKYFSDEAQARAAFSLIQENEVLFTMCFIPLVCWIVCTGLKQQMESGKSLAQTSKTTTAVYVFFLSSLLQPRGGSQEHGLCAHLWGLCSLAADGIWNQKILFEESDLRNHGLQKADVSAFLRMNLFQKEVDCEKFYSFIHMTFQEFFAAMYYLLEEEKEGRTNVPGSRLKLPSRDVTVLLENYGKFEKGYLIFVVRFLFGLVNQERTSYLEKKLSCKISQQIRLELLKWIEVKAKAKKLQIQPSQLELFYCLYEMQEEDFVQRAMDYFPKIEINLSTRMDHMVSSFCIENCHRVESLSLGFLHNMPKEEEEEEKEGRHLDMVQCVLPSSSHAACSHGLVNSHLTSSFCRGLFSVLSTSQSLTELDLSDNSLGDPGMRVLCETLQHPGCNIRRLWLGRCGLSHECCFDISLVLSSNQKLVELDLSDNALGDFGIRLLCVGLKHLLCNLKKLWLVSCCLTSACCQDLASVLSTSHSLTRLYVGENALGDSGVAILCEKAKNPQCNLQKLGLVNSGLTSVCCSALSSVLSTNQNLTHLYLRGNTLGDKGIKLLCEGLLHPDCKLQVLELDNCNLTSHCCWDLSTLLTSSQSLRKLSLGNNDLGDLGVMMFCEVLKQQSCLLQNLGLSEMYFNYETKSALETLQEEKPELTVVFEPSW

Regarding `CC(C)c1cc(F)cc(-c2ccnc(OC3CCN(C)CC3)c2)c1NC(=O)NS(C)(=O)=O` [Example 43], the IC50 was 500 to 1000 nM against NLRP3 [1] and at most 250 nM at NLRP3 [2].

As to `CC(C)n1ccc(S(=O)(=O)NC(=O)Nc2c(-c3ccnc(C4CC4)c3)ccc3c2CCC3)n1` [Example 69], the IC50 against NLRP3 [1] is at most 250 nM; at NLRP3 [2] it was 500 to 1000 nM.

Source of the values: patent publication US20210163412A1, “NOVEL SULFONEUREA COMPOUNDS” (Inflazome Limited, priority 2018, published 2021).
